From ChEMBL document CHEMBL5154637, “Peptidomimetic α-Acyloxymethylketone Warheads with Six-Membered Lactam P1 Glutamine Mimic: SARS-CoV-2 3CL Protease Inhibition, Coronavirus Antiviral Activity, and in Vitro Biological Stability” (J Med Chem, 2022)

What was measured:
[1] = Antiviral activity against Human coronavirus OC43 infected in human Huh-7 cells assessed as reduction in virus-induced cytopathic effect incubated for 7 days by Celltiter-Glo assay; type: functional, cell-based; conditions: Betacoronavirus 1, OC43, Huh-7, 168 h
[2] = Cytotoxicity against human MRC5 cells assessed as reduction in cell viability incubated for 24 hrs by Celltiter-glo luminescent cell viability assay; type: toxicity, cell-based
[3] = Cytotoxicity against human Huh-7 cells assessed as reduction in cell viability incubated for 24 hrs by Celltiter-glo luminescent cell viability assay; type: toxicity, cell-based
Human coronavirus 229E = assay: Antiviral activity against Human coronavirus 229E infected in human MRC5 cells assessed as reduction in virus-induced cytopathic effect incubated for 3 days by Celltiter-Glo assay; type: functional, organism-based; conditions: MRC5, 72 h
[4] = Stability in CD-1 mouse plasma assessed as half life at 2 uM measured upto 120 mins by LC-MS/MS analysis; type: ADME, cell-free
[5] = Microsomal stability in CD-1 mouse liver microsomes assessed as half life at 1 uM measured upto 60 mins in presence of NADPH by LC-MS/MS analysis; type: ADME, Microsome; conditions: for Stability: mouse, microsomes, 1 h, 1 µM; for half-life at 1 µM: CD-1, mouse, liver microsomes
[6] = Metabolic stability in CD-1 mouse Hepatocytes assessed as half life at 3 uM measured upto 90 mins by LC-MS/MS analysis; type: ADME, cell-based, Hepatocyte; conditions: for half-life at 3 µM: CD-1, mouse
[7] = Lipophilicity, log D of the compound at phosphate buffer pH 7.4 by shake flask method based LC-MS/MS analysis; type: physicochemical
[8] = Metabolic stability in human plasma measured at 2 hrs by LC-MS analysis; type: ADME, cell-free; conditions: read-out: Stability
[9] = Metabolic stability in human plasma assessed as half life measured upto 2 hrs by LC-MS analysis; type: ADME, cell-free
[10] = Dissociation constant, pKa of the compound; type: physicochemical
[11] = Metabolic stability in CD-1 mouse liver microsomes assessed as half life at 1 uM measured upto 60 mins in absence of NADPH by LC-MS/MS analysis; type: ADME, Microsome
[12] = Apparent permeability from basolateral to apical side in human Caco-2 cells at 2 uM with pH 7.4 incubated for 2 hrs by LC-MS analysis; type: ADME, cell-based; conditions: for permeability: caco-2, pH 7.4, 2 h, 2 µM; for Papp B→A at 2 h, 2 µM: Caco-2, pH 7.4
in vitro [13] = conditions: chlorocebus sabaeus, Vero E6 cells
in vitro [14] = conditions: human, A549 cells
SARS-CoV-2 = assay: microbe, parasite or virus in culture; conditions: Severe acute respiratory syndrome coronavirus 2, Vero C1008, 48 h
[15] = Selectivity index, ratio of CC50 for cytotoxicity against African green monkey VeroE6 cells assessed as reduction in cell viability to EC50 for antiviral activity against SARS-CoV-2 3CL protease; type: toxicity, cell-based
Cathepsin S [16] = molecular target: T1, Cathepsin S (Homo sapiens, UniProt P25774); assay: Inhibition of human cathepsin S incubated for 30 mins by fluorometric analysis
Target sequence in this assay (P25774 whole entry): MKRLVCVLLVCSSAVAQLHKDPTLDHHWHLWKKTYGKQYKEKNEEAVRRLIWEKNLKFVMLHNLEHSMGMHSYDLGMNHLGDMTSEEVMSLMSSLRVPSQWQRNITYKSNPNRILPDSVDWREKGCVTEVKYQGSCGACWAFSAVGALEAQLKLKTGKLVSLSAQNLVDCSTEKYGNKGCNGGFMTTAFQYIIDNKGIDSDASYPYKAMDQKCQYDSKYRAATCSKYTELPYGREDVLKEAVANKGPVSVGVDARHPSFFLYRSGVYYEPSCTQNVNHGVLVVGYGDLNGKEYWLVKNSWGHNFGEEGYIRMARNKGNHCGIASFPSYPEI

[17] = Selectivity index, ratio of CC50 for cytotoxicity against human A549 cells assessed as reduction in cell viability to EC50 for antiviral activity against SARS-CoV-2 3CL protease; type: toxicity, cell-based; conditions: read-out: Ratio CC50/EC50
Cathepsin B [18] = molecular target: T2, Cathepsin B (Homo sapiens, UniProt P07858); assay: Inhibition of human cathepsin B at 1 uM incubated for 30 mins by fluorometric analysis
Cathepsin S [19] = molecular target: T1, Cathepsin S; assay: Inhibition of human cathepsin S at 1 uM incubated for 30 mins by fluorometric analysis
Target sequence in this assay (P25774 115-331 limits assumed): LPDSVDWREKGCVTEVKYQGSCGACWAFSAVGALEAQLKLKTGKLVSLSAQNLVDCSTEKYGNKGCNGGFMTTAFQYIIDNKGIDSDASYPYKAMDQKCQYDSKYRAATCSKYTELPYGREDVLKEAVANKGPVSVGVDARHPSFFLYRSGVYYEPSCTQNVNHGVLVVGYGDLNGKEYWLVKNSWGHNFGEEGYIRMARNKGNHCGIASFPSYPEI

Cathepsin B [20] = molecular target: T2, Cathepsin B; assay: Inhibition of human cathepsin B incubated for 30 mins by fluorometric analysis
[21] = molecular target: Replicase polyprotein 1ab (Severe acute respiratory syndrome coronavirus 2, UniProt P0DTD1); assay: Inhibition of SARS-CoV-2 3CL protease incubated for 30 mins by FRET assay
[22] = Stability of compound in glutathione at pH 7.4 after 24 hrs by LC-MS analysis; type: physicochemical; conditions: read-out: Stability
[23] = Efflux ratio of apparent permeability across basal to apical membrane over apical to basal membrane in human Caco-2 cells at 2 uM with pH 7.4 incubated for 2 hrs by LC-MS analysis; type: ADME, cell-based; conditions: caco-2, pH 7.4, 2 h
in vitro [24] = conditions: human, Huh-7 cells

Row | Structure (SMILES) | EC50 [1] [µM] | CC50 at 24 h [2] [µM] | CC50 at 24 h [3] [µM] | EC50 (Human coronavirus 229E) [µM] | remaining at 2 h [8] [%] | pKa [10] | CC50 at 24 h (in vitro [13]) [µM] | CC50 at 24 h (in vitro [14]) [µM] | EC50 (SARS-CoV-2) [µM] | inhibition (Cathepsin B [18]) [%] | inhibition (Cathepsin S [19]) [%] | IC50 [21] [µM] | also measured
1 | COc1cccc2[nH]c(C(=O)N[C@@H](CC(C)C)C(=O)N[C@@H](C[C@@H]3CCCNC3=O)C(=O)COC(=O)C(C)(C)C(F)(F)F)cc12 | 0.195 | > 100 | 94.6 | 0.112 | 25 | 3.2 | > 200 | > 200 | > 5 | – | – | – | half-life at 2 µM [4]: 11.6 min; Stability [5]: Unstable; Stability ([6]; mouse, 1.5 h, 3 µM): Unstable; logD [7]: 4.89; half-life [9]: 67 min; Stability ([11]; mouse, microsomes, 1 h, 1 µM): Unstable; permeability [12]: Impermeable
2 | COc1cccc2[nH]c(C(=O)N[C@@H](CC(C)C)C(=O)N[C@@H](C[C@@H]3CCCNC3=O)C(=O)COC(=O)C(C)(C)C)cc12 | – | – | – | – | 100 | 5.03 | – | – | > 10 | – | – | – | –
3 | COc1cccc2[nH]c(C(=O)N[C@@H](CC(C)C)C(=O)N[C@@H](C[C@@H]3CCCNC3=O)C(=O)COC(=O)C3(C(F)(F)F)CCCCC3)cc12 | 0.395 | > 100 | > 100 | 0.196 | 97 | 3.4 | > 200 | > 200 | 0.6 | 38.6 | 84.2 | – | selectivity ratio ([15]; read-out: Ratio CC50/EC50): > 333; IC50 (Cathepsin S [16]): 0.444 µM; selectivity ratio [17]: > 333; IC50 (Cathepsin B [20]): 2.85 µM
4 | COc1cccc2[nH]c(C(=O)N[C@@H](CC(C)C)C(=O)N[C@@H](C[C@@H]3CCCNC3=O)C(=O)COC(=O)c3cccnc3)cc12 | – | – | – | – | 2 | 2 | – | – | > 10 | – | – | – | half-life [9]: < 15 min
5 | COc1cccc2[nH]c(C(=O)N[C@@H](CC(C)C)C(=O)N[C@@H](C[C@@H]3CCCNC3=O)C(=O)COC(=O)c3ccccn3)cc12 | – | – | – | – | – | 0.99 | – | – | > 10 | – | – | 0.126 | –
6 | COc1cccc2[nH]c(C(=O)N[C@@H](CC(C)C)C(=O)N[C@@H](C[C@@H]3CCNC3=O)C(=O)COC(=O)c3c(C(F)(F)F)cc(C)nc3C)cc12 | 0.033 | > 100 | 44.9 | 0.013 | – | – | > 200 | > 201 | – | – | – | – | half-life at 2 µM [4]: > 289 min; half-life at 1 µM [5]: 1.1 min; half-life at 3 µM [6]: 1.9 min; logD [7]: 4.57; Papp B→A at 2 h, 2 µM [12]: 24.3 ×10⁻⁶ cm/s
7 | COc1cccc2[nH]c(C(=O)N[C@@H](CC(C)C)C(=O)N[C@@H](C[C@@H]3CCCNC3=O)C(=O)CO)cc12 | – | – | – | – | – | – | > 200 | > 200 | 10.1 | 26.5 | 60.8 | 0.0195 | –
8 | COc1cccc2[nH]c(C(=O)N[C@@H](CC(C)C)C(=O)N[C@@H](C[C@@H]3CCCNC3=O)C(=O)COC(=O)c3ccccc3)cc12 | – | – | – | – | 67 | 4.2 | – | – | > 10 | 16.2 | 41 | – | half-life [9]: 209 min
9 | COc1cccc2[nH]c(C(=O)N[C@@H](CC(C)C)C(=O)N[C@@H](C[C@@H]3CCCNC3=O)C(=O)COC(=O)c3c(C)nc(C)nc3C)cc12 | – | – | – | – | – | 2 | > 200 | > 200 | – | – | – | – | –
10 | COc1cccc2[nH]c(C(=O)N[C@@H](CC(C)C)C(=O)N[C@@H](C[C@@H]3CCCNC3=O)C(=O)COC(=O)c3c(C)cc(C)nc3C)cc12 | 0.054 | > 100 | > 100 | 0.048 | 100 | 1.7 | > 200 | > 200 | – | 86.7 | 98.1 | 0.019 | IC50 (Cathepsin S [16]): 0.0515 µM; half-life at 2 µM [4]: > 289 min; half-life at 1 µM [5]: 1.1 min; half-life at 3 µM [6]: 2.7 min; logD [7]: 4.41; IC50 (Cathepsin B [20]): 0.201 µM; remaining at 24 h [22]: > 80%; Papp B→A at 2 h, 2 µM [12]: 21.8 ×10⁻⁶ cm/s
11 | COc1cccc2[nH]c(C(=O)N[C@@H](CC(C)C)C(=O)N[C@@H](C[C@@H]3CCCNC3=O)C(=O)COC(=O)c3c(Cl)cccc3Cl)cc12 | 0.035 | > 100 | > 100 | 0.021 | – | 1.26 | > 200 | > 200 | – | – | – | – | half-life at 2 µM [4]: 170 min; Stability [5]: Unstable; half-life at 3 µM [6]: 2.3 min; logD [7]: > 5.07; half-life at 1 µM ([11]; CD-1, mouse, liver microsomes): < 180 min; permeability [12]: Impermeable
12 | COc1cccc2[nH]c(C(=O)N[C@@H](CC(C)C)C(=O)N[C@@H](C[C@@H]3CCCNC3=O)C(=O)COC(=O)c3c(C(F)(F)F)cccc3C(F)(F)F)cc12 | 0.047 | > 100 | 94.6 | 0.029 | 100 | 1.9 | > 200 | > 200 | 0.16 | 91.3 | 96.8 | – | selectivity ratio ([15]; read-out: Ratio CC50/EC50): > 1250; IC50 (Cathepsin S [16]): 0.116 µM; selectivity ratio [17]: > 1250; IC50 (Cathepsin B [20]): 0.464 µM
13 | COc1cccc2[nH]c(C(=O)N[C@@H](CC(C)C)C(=O)N[C@@H](C[C@@H]3CCCNC3=O)C(=O)COC(=O)c3c(C(F)(F)F)cc(C)nc3C)cc12 | 0.045 | > 100 | 67.6 | 0.03 | 99 | 1.7 | > 200 | > 200 | 0.47 | 95 | 98.4 | – | selectivity ratio ([15]; read-out: Ratio): > 426; selectivity ratio [17]: > 426; half-life at 2 µM [4]: > 289 min; half-life at 1 µM [5]: 1 min; half-life at 3 µM [6]: 1.9 min; Ratio [23]: 1146; logD [7]: 4.11; remaining at 24 h [22]: > 80%; Papp B→A at 2 h, 2 µM [12]: 28.9 ×10⁻⁶ cm/s
14 | CCC(CC)COC(=O)[C@H](C)N[P@](=O)(OC[C@H]1O[C@@](C#N)(c2ccc3c(N)ncnn23)[C@H](O)[C@@H]1O)Oc1ccccc1 | 0.02 | > 100 | 10.4 | 0.035 | – | – | – | – | – | – | – | – | selectivity ratio (in vitro [24]): 518
15 | COc1cccc2[nH]c(C(=O)N[C@@H](CC(C)C)C(=O)N[C@@H](C[C@@H]3CCCNC3=O)C(=O)COC(=O)c3ccncc3)cc12 | – | – | – | – | – | 1.77 | – | – | > 10 | – | – | 0.0329 | –
16 | O=C[C@H](C[C@@H]1CCNC1=O)NC(=O)[C@H](CC1CCCCC1)NC(=O)OCc1cccc(Cl)c1 | – | – | – | – | – | – | – | – | – | 72.5 | 99.3 | – | –
17 | CC(=O)OCC(=O)[C@H](C[C@@H]1CCNC1=O)NC(=O)[C@H](CC(C)C)NC(=O)OCc1cccc(Cl)c1 | – | – | – | – | – | – | > 200 | > 200 | 21.5 | – | – | 1.5 | –
18 | COc1cccc2[nH]c(C(=O)N[C@@H](CC(C)C)C(=O)N[C@@H](C[C@@H]3CCCNC3=O)C(=O)COC(=O)c3c(C)nn(C)c3C)cc12 | – | – | – | – | – | 2.2 | – | – | > 10 | – | – | 0.0715 | –
19 | COc1cccc2[nH]c(C(=O)N[C@@H](CC(C)C)C(=O)N[C@@H](C[C@@H]3CCCNC3=O)C(=O)COC(=O)C3(C)OCCCO3)cc12 | – | – | – | – | – | 2.7 | – | – | > 10 | – | – | 0.0125 | –
20 | COc1cccc2[nH]c(C(=O)N[C@@H](CC(C)C)C(=O)N[C@@H](C[C@@H]3CCCNC3=O)C(=O)COC(=O)C(C)(C)C#N)cc12 | – | – | – | – | 0 | 2.4 | – | – | > 10 | – | – | – | half-life [9]: < 15 min
